The target in the first assay is human NLRP3 (Homo sapiens (Human), UniProt Q96P20). The assay can be described thus: Scintillation Proximity (SPA) NLRP3 Assay: displacement of 3H-MCC950. The format is binding. As to conditions: SPA IC50, displacement of 3H-MCC950. In general terms: SPA uses beads or plates that emit light when radiolabelled molecules are held near them.
Sequence of human NLRP3 (Q96P20 whole entry): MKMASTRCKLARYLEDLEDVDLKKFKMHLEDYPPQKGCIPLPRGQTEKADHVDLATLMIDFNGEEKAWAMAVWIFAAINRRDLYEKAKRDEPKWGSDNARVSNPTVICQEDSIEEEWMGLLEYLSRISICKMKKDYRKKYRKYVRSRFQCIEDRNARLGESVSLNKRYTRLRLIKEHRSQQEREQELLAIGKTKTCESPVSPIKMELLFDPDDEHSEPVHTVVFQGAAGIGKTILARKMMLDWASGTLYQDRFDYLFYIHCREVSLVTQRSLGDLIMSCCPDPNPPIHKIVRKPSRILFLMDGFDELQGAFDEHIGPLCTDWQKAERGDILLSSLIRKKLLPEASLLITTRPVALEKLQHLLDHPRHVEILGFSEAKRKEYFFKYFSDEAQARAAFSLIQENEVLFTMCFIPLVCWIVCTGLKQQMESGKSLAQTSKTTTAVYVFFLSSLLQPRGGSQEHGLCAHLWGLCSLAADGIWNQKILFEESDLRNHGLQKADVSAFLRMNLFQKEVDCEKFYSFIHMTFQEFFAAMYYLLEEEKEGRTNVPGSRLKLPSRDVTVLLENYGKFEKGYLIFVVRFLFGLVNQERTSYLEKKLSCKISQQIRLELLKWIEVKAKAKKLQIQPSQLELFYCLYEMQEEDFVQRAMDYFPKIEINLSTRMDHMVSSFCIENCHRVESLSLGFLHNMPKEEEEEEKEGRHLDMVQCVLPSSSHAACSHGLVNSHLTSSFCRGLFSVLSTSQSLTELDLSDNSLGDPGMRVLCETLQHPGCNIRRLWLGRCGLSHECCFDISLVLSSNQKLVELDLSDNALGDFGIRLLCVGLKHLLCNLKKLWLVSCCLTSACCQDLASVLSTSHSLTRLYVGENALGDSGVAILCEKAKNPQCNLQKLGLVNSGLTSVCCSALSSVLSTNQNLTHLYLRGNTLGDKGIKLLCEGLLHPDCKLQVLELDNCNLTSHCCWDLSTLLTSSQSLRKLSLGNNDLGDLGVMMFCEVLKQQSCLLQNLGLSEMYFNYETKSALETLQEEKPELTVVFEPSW
`C[C@H]1C[C@@H]2CC[C@H]([C@@H](NC(=O)C3(c4ccc(C(F)(F)F)cc4)CC3)C1)N2c1nnn[nH]1` [104B*, N-((1R,2S,4R,6S)-4-methyl-9-(1H-tetrazol-5-yl)-9-azabicyclo[4.2.1]nonan-2-yl)-1-(4-(trifluoromethyl)phenyl)cyclopropane-1-carboxamide] yielded an IC50 of 10 to 50 µM.
Still for that read-out and setting: under `O=C(N[C@@H]1CCC[C@H]2CC[C@@H]1N2c1nnn[nH]1)C1(c2ccc(Cl)cc2)CC1` (single isomer, unassigned) [9C*, N-(9-(1H-tetrazol-5-yl)-9-azabicyclo[4.2.1]nonan-2-yl)-1-(4-chlorophenyl)cyclopropane-1-carboxamide] stands more than 100 µM; under `O=C(N[C@@H]1CCC[C@H]2CC[C@@H]1N2c1nnn[nH]1)C1(c2ccc(C3CC3)cc2O)CC1` [93C*, N-((1S,2R,6S)-9-(1H-tetrazol-5-yl)-9-azabicyclo[4.2.1]nonan-2-yl)-1-(4-cyclopropyl-2-hydroxyphenyl)cyclopropane-1-carboxamide], 10 to 50 µM; under `O=C(N[C@H]1CCC[C@@H]2CC[C@H]1N2c1nnn[nH]1)C1(c2ccc(C3CC3)cc2O)CC1` [93B*, N-((1R,2S,6R)-9-(1H-tetrazol-5-yl)-9-azabicyclo[4.2.1]nonan-2-yl)-1-(4-cyclopropyl-2-hydroxyphenyl)cyclopropane-1-carboxamide], 1 to 10 µM.
The same measure, in the same setting: then `O=C(N[C@H]1CCC[C@@H]2CC[C@H]1N2c1nnn[nH]1)C1(c2ccc(Cl)cc2)CC1` (single isomer, unassigned) [9B*, N-(9-(1H-tetrazol-5-yl)-9-azabicyclo[4.2.1]nonan-2-yl)-1-(4-chlorophenyl)cyclopropane-1-carboxamide], with more than 100 µM.

The assay is the same for the next values; noted with them: displacement of 3H-MCC950; read-out: SPA IC50.
With `C[C@@H]1CCN(c2nnn[nH]2)C[C@@H](NC(=O)C2(c3ccc(Cl)nc3O)CC2)C1` (single isomer, unassigned) [100B*], the half-maximal inhibitory concentration (IC50) lay in the range of 10 to 50 µM.
The same measure, in the same setting: under `O=C(N[C@H]1CC[C@@H]2CC[C@H]1N2c1nnn[nH]1)C1(c2ccc(Cl)cc2O)CC1` [75B*, N-((1R,2S,5R)-8-(1H-tetrazol-5-yl)-8-azabicyclo[3.2.1]octan-2-yl)-1-(4-chloro-2-hydroxyphenyl)cyclopropane-1-carboxamide] stands 1 to 10 µM; under `C[C@H]1CCN(c2nnn[nH]2)C[C@H](NC(=O)C2(c3ccc(C(F)F)cc3)CC2)C1` (single isomer, unassigned) [5C*, 1-(4-(difluoromethyl)phenyl)-N-(5-methyl-1-(1H-tetrazol-5-yl)azepan-3-yl)cyclopropane-1-carboxamide], more than 100 µM.
On the same count and under the same terms, under `C[C@H]1CCN(c2nnn[nH]2)C[C@H](NC(=O)C2(c3ccc(C(F)F)cc3O)CC2)C1` (single isomer, unassigned) [30C*, 1-(4-(difluoromethyl)-2-hydroxyphenyl)-N-(5-methyl-1-(1H-tetrazol-5-yl)azepan-3-yl)cyclopropane-1-carboxamide] stands more than 100 µM.
The same measure, in the same setting: then `C[C@@H]1CCN(c2nnn[nH]2)C[C@@H](NC(=O)C2(c3cc(F)c(C(F)(F)F)cc3F)CC2)C1` (single isomer, unassigned) [7B*, 1-(2,5-difluoro-4-(trifluoromethyl)phenyl)-N-(5-methyl-1-(1H-tetrazol-5-yl)azepan-3-yl)cyclopropane-1-carboxamide], with 10 to 50 µM; and `C[C@H]1C[C@H](NC(=O)C2(c3ccc(C4CC4)c(F)c3O)CC2)[C@@H]2CC[C@H]1N2c1nnn[nH]1` [83D*, 1-(4-cyclopropyl-3-fluoro-2-hydroxyphenyl)-N-((1S,2S,4S,5R)-4-methy1-8-(1H-tetrazol-5-yl)-8-azabicyclo[3.2.1]octan-2-yl)cyclopropane-1-carboxamide], with more than 100 µM.
With `O=C(N[C@H]1CCCN(c2nnn[nH]2)C1)C1(c2ccc(Cl)cc2)CC1` [Compound 10B, (S)—N-(1-(1H-tetrazol-5-yl)piperidin-3-yl)-1-(4-chlorophenyl)cyclopropane-1-carboxamide], the IC50 is more than 100 µM.
The same measure, in the same setting: under `C[C@H]1C[C@H](NC(=O)C2(c3ccc(SC(F)F)cc3)CC2)[C@@H]2CC[C@H]1N2c1nnn[nH]1` [85D*, 1-(4-((difluoromethyl)thio)phenyl)-N-((1S,2S,4S,5R)-4-methy1-8-(1H-tetrazol-5-yl)-8-azabicyclo[3.2.1]octan-2-yl)cyclopropane-1-carboxamide] stands more than 100 µM.
Consider `C[C@H]1C[C@@H](NC(=O)C2(c3ccc(C(F)(F)F)cc3F)CC2)[C@@H]2CC[C@H]1N2c1nnn[nH]1` [84C*, 1-(2-fluoro-4-(trifluoromethyl)phenyl)-N-((1S,2R,4S,5R)-4-methy1-8-(1H-tetrazol-5-yl)-8-azabicyclo[3.2.1]octan-2-yl)cyclopropane-1-carboxamide], for which the concentration for half-maximal inhibition (IC50) was more than 100 µM.
Same read-out and setting: then `C[C@H]1CCN(c2nnn[nH]2)C[C@@H](NC(=O)C2(c3ccc(C4CC4)cc3)CC2)C1` (single isomer, unassigned) [2D*], with 1 to 10 µM; and `C[C@@H]1CCN(c2nnn[nH]2)C[C@@H](NC(=O)C2(c3ccc(C4CC4)cc3)CC2)C1` (single isomer, unassigned) [2B*], with 1 to 10 µM.
As to `C[C@H]1C[C@@H](NC(=O)C2(c3ccc(C4CC4)cc3)CC2)[C@@H]2CC[C@H]1N2c1nnn[nH]1` [81C*, 1-(4-cyclopropylphenyl)-N-((1S,2R,4S,5R)-4-methyl-8-(1H-tetrazol-5-yl)-8-azabicyclo[3.2.1]octan-2-yl)cyclopropane-1-carboxamide], the IC50 fell in the range of 50 to 100 µM.
The same measure, in the same setting: then `C[C@@H]1CCN(c2nnn[nH]2)C[C@@H](NC(=O)C2(c3ccc(Cl)cc3F)CC2)C1` (single isomer, unassigned) [56B*], with 1 to 10 µM; and `C[C@H]1C[C@@H](NC(=O)C2(c3ccc(C(F)F)cc3)CC2)[C@@H]2CC[C@H]1N2c1nnn[nH]1` [86C*, 1-(4-(difluoromethyl)phenyl)-N-((1S,2R,4S,5R)-4-methyl-8-(1H-tetrazol-5-yl)-8-azabicyclo[3.2.1]octan-2-yl)cyclopropane-1-carboxamide], with more than 100 µM.
With `C[C@H]1C[C@@H](NC(=O)C2(c3ccc(C4CC4(F)F)cc3)CC2)[C@@H]2CC[C@H]1N2c1nnn[nH]1` (single isomer, unassigned) [37C*], the 50% inhibitory concentration (IC50) was more than 100 µM.
Same read-out and setting: then `C[C@H]1CCN(c2nnn[nH]2)C[C@@H](NC(=O)C2(c3cnc(Cl)cc3O)CC2)C1` (single isomer, unassigned) [99D*], with 10 to 50 µM; and `C[C@H]1CCN(c2nnn[nH]2)C[C@@H](NC(=O)C2(c3ccc(C(F)(F)F)cc3O)CC2)C1` (single isomer, unassigned) [63D*], with less than 1 µM; and `O=C(N[C@@H]1C[C@@H](F)CN(c2nnn[nH]2)C1)C1(c2ccc(Cl)cc2)CC1` [Compound 44C, 1-(4-chlorophenyl)-N-[(3R,5R)-5-fluoro-1-(1H-tetrazol-5-yl)-3-piperidyl]cyclopropanecarboxamide], with 10 to 50 µM.
On the same count and under the same terms, under `C[C@H]1CC[C@H](NC(=O)C2(c3ccc(C4CC4)cc3O)CC2)CN(c2nnn[nH]2)C1` (single isomer, unassigned) [91B*] stands less than 1 µM.
For `C[C@H]1CCN(c2nnn[nH]2)C[C@H](NC(=O)C2(c3c(F)cc(Cl)cc3F)CC2)C1` (single isomer, unassigned) [72C*], the IC50 was more than 100 µM.
Still for that read-out and setting: then `C[C@H]1CCN(c2nnn[nH]2)C[C@H](NC(=O)C2(c3ccc(Cl)c(F)c3)CC2)C1` (single isomer, unassigned) [65C*], with 10 to 50 µM.
On the same count and under the same terms, then `O=C(NC1CC(C2CC2)CN(c2nnn[nH]2)C1)C1(c2ccc(Cl)cc2)CC1` (single isomer, unassigned) [Rac-13B*/C*, 1-(4-chlorophenyl)-N-(5-cyclopropyl-1-(1H-tetrazol-5-yl)piperidin-3-yl)cyclopropane-1-carboxamide], with 50 to 100 µM; and `C[C@@H]1C[C@H](NC(=O)C2(c3ccc(C4CC4)cc3)CC2)[C@H]2CC[C@@H]1N2c1nnn[nH]1` [81B*, 1-(4-cyclopropylphenyl)-N-((1R,2S,4R,5S)-4-methyl-8-(1H-tetrazol-5-yl)-8-azabicyclo[3.2.1]octan-2-yl)cyclopropane-1-carboxamide], with 50 to 100 µM; and `C[C@H]1CC[C@@H](NC(=O)C2(c3ccc(C4CC4)cc3O)CC2)CN(c2nnn[nH]2)C1` (single isomer, unassigned) [91A*], with less than 1 µM.
Turning to `C[C@H]1C[C@H](NC(=O)C2(c3ccc(C(F)F)cc3)CC2)[C@@H]2CC[C@H]1N2c1nnn[nH]1` [86D*, 1-(4-(difluoromethyl)phenyl)-N-((1S,2S,4S,5R)-4-methyl-8-(1H-tetrazol-5-yl)-8-azabicyclo[3.2.1]octan-2-yl)cyclopropane-1-carboxamide], the IC50 is more than 100 µM.
With `C[C@@H]1CC[C@@H](NC(=O)C2(c3ccc(C(F)(F)F)cc3O)CC2)CN(c2nnn[nH]2)C1` [89C*, 1-(2-hydroxy-4-(trifluoromethyl)phenyl)-N-((3R,6R)-6-methyl-1-(1H-tetrazol-5-yl)azepan-3-yl)cyclopropane-1-carboxamide], the IC50 was 1 to 10 µM.
The same measure, in the same setting: then `C[C@H]1C[C@@H](NC(=O)C2(c3ccc(C(F)(F)F)cc3)CC2)[C@@H]2CC[C@H]1N2c1nnn[nH]1` [79C*, N-((1S,2R,4S,5R)-4-methy1-8-(1H-tetrazol-5-yl)-8-azabicyclo[3.2.1]octan-2-yl)-1-(4-(trifluoromethyl)phenyl)cyclopropane-1-carboxamide], with 10 to 50 µM; and `Cc1c(Cl)ccc(C2(C(=O)N[C@H]3C[C@H](C)CCN(c4nnn[nH]4)C3)CC2)c1O` (single isomer, unassigned) [21B*, 1-(4-chloro-2-hydroxy-3-methylphenyl)-N-(5-methyl-1-(1H-tetrazol-5-yl)azepan-3-yl)cyclopropane-1-carboxamide], with 1 to 10 µM; and `C[C@@H]1CCN(c2nnn[nH]2)C[C@@H](NC(=O)C2(c3ccc(OC(F)(F)F)cc3F)CC2)C1` (single isomer, unassigned) [64B*], with 10 to 50 µM.

The same assay, now with this note: read-out: SPA IC50.
`Cn1nnnc1-c1cccc(NC(=O)C2(c3ccc(Cl)cc3)CC2)c1` [Comparative Example E1, 1-(4-chlorophenyl)-N-(3-(1-methyl-1H-tetrazol-5-yl)phenyl)cyclopropane-1-carboxamide, reference compound]: the IC50 is more than 500 µM.

In general, IC50 refers to the concentration that inhibits the measured activity by half.

Source of the values: patent US20260007684A1, “AMIDE DERIVATIVES FOR INHIBITING NLRP3 AND USES THEREOF” (Ventus Therapeutics U.S., Inc., priority 2023, published 2026).
